Results published in US10799501B2, “Combination of an inhibitor of PARP with an inhibitor of GSK-3 or DOT1L” (King's College London, priority 2015, dated 2020).

Experiments:
NB4-LR2 (PML-RARα) = assay: In vitro PARPi treatment of human leukemic cell line NB4-LR2; type: cell-based
Description: NB4-LR2 and THP1 cell lines (kindly provided by Dr Arthur Zelent and Professor Mel Greaves respectively) were cultured in RPMI (Invitrogen) supplemented with 10% selected FBS (R10), 2 mM L-Glutamine. Kasumi cell line (kindly provided by Dr Olaf Heidenreich) was cultured in RPMI-Hepes modified (Sigma) supplemented with 20% selected FBS and 2 mM L-[…]). Cell lines were validated by qPCR for their respective oncogenes. NIH3T3 and GP2 cell line was cultured in DMEM (Invitrogen) supplemented with 10% selected FBS and 2 mM L-Glutamine. Human primary AML cells were cultured in IMEM (Invitrogen) supplemented with […], 2 mM L-Glutamine, 10 ng/mL each of human cytokines, IL3, IL6, SCF, FLT3 ligand, and TPO. Cells were kept at 37° C. and 5% CO2. Use of human primary cells was approved by King's College London committee and consents of the patients were obtained. […] Colonies were scored 6-7 days after plating. […] Samples were then washed in PBS analysed at the FACS LSRII (BD Biosciences Pharmingen) with FACS Diva. […] Cells were counted in at least 5 fields for each slide, for a total of over 100 cells. The percentage of senescent cells was calculated by the percentage of the number of blue cell in the field.

MLL pre-LSC = assay: Colony formation of MLL pre-LSC with PARPi, LiCl or combination; type: cell-based, mouse; details: seven days; 8 mM LiCl, 1 μM Olaparib
Description: Colonies were scored 6-7 days after plating. For other in vitro studies, mouse leukemic cells and primary AML cell lines were subjected to continuously Olaparib (1 μM) or LiCl (8 mM) treatment in liquid culture for whole duration as indicated in the figures or figure legends. For human leukemic cell lines, experiments were performed as described above with 5 μM Olaparib. 1×10^5 cells were cytospun for 5 min at 300 g onto glass slides. Slides were then stained with May-Grunwald solution (Sigma-Aldrich) for 3 min at room temperature. After washing in water, they were incubated for 20 min in Giemsa solution (Sigma-Aldrich) (1:20 in water). Slides were washed again in water before being mounted with Mowiol. Cells were counted in at least 5 fields for each slide, for a total of over 100 cells per condition. NBT reduction assay were performed to determine myeloid differentiation. 0.1% of NBT (final concentration) was added to the liquid culture or semi-solid methocult and incubated at 37° C. CO2 incubator for 3 hrs and 12 hrs, respectively. Cells were then washed in PBS and the differentiated cells were indicated by the deposition of dark blue insoluble formazan (NBT positive cells) and the percentage of differentiated cells were counted under microscopy. At least 200 cells were counted in most of the cases.

In the case of `O=C(c1cc(Cc2n[nH]c(=O)c3ccccc23)ccc1F)N1CCN(C(=O)C2CC2)CC1` [Olaparib, 4-[(3-[(4-cyclopropylcarbonyl)piperazin-4-yl]carbonyl)-4-fluorophenyl]methyl(2H)-phthalazin-1-one], the senescence and apoptosis (NB4-LR2 (PML-RARα); PARPi 72 hrs / 4 days) is reported as “effectively induce senescence and apoptosis”, the colony forming ability (NB4-LR2 (PML-RARα); methylcellulose 7 days, 5 μM Olaparib) is reported as “reduced the colony forming ability” and the “colony forming ability / growth inhibition” value (MLL pre-LSC) is reported as “non-effective”.
